Results on one molecule are retold here after patent publication US10065965B2, “Imidazo[1,2-B][1,2,4]triazine derivatives as antiparasitic agents” (GlaxoSmithKline Intellectual Property Development Limited, priority 2015, dated 2018).

Data set [1] relates to Trypanosoma cruzi. Description: Assay 6 Trypanosoma cruzi intracellular assay (infected H9C2 cells). In kind it is cell-based. The settings on record: H9c2, in Rattus norvegicus, 72 h, infected H9C2 rat cardiomyocytes, read-out: pEC50 value against Trypanosoma cruzi (converted). The gist of the method:
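Infected H9C2 rat cardiomyocytes (T. cruzi trypomastigotes, MOI 1, 18 h) plated at 2500 cells/well on compound, 11-point 1:3 curves from 50 μM top, 72 h at 37 °C in 2% FBS DMEM. Fixed, Draq5-stained, high-content imaged; algorithm counts parasites per cell, % infected cells and total host cells (cytotoxicity).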

Data set [2] can be described thus: Assay 5 Leishmania donovani intracellular assay, cytotoxicity against THP-1 cells. To be noted: human, total number of THP-1 cells, minimum threshold 4.3, read-out: cytotoxicity against THP-1 cells, pEC50 value (converted). In kind it is cell-based. The protocol: Compounds were dispensed into black 384-well assay plates (Greiner) by acoustic dispensing (LabCyte ECHO). For potency determinations, eleven-point, one in three dilution curves were generated, with a top concentration of 50 μM. THP-1 human monocytes cells were dispensed in T225 tissue culture flasks and differentiated using 30 nM of PMA, after 24 hours they were infected overnight using Leishmania donovani expressing Green Fluorescent Protein (eGFP) amastigotes in the same T225 tissue culture flasks at a multiplicity of infection of 10. Next, any remaining free amastigotes were washed away with PBS and the infected THP-1 cells were harvested by trypsinisation. The infected cells were then plated into 384-well plates containing the compounds to be tested, at 3000 cells per well in RPMI media with 2% FBS and 25 mM Sodium bicarbonate. After 96 h incubation at 37° C. in presence of 5% CO2, the plates were fixed with 4% formaldehyde for 30 minutes, washed with PBS and stained with 0.1 mg/mL of DAPI for 30 minutes and washed again with PBS. The plates were imaged on a Perkin Elmer Opera high-content imaging system using a 20× air objective with two expositions, one for DAPI stain and other for eGFP. Images were analysed using the Acapella building blocks system (Perkin Elmer). The image analysis algorithm first identified the THP-1 nuclei followed by demarcation of the cytoplasm and identification of intracellular amastigotes. This algorithm reported mean number of parasites per THP-1 cell, the percentage of infected THP-1 cells and the total number of THP-1 cells.

The nature of data set [3]: Assay 6 Trypanosoma cruzi intracellular assay, cytotoxicity against H9c2 cells. In kind it is cell-based. The settings on record: rat, H9C2 cardiomyocytes infected with T. cruzi trypomastigotes, total number of H9C2 cells, minimum threshold 4.3, read-out: cytotoxicity against H9c2 cells, pEC50 (converted). The protocol: Compounds were dispensed into black 384-well assay plates (Greiner) by acoustic dispensing (LabCyte ECHO). For potency determinations, eleven-point, one in three dilution curves were generated, with a top concentration of 50 μM. H9C2 rat cardiomyocytes cells were dispensed in T225 tissue culture flasks and after 4 hours they were infected during 18 hours with T. cruzi trypomastigotes in the same T225 tissue culture flasks at a multiplicity of infection of 1. Next, any remaining free trypomastigotes were washed away with PBS and the infected H9C2 cells were harvested by trypsinisation. The infected H9C2 cells were then plated into 384-well plates containing the compounds to be tested, at 2500 cells per well in DMEM media with 2% FBS, 1% Penicillin/Streptomocin, 2 mM L-Glutamine, 1 mM Na Pyruvate and 25 mM HEPES. After 72 h incubation at 37° C. in presence of 5% CO2, the plates were fixed and stained with 4% formaldehyde and 2 μM Draq5 for 3 hours at room temperature. The plates were imaged on a Perkin Elmer Opera high-content imaging system using a 20× air objective. Images were analysed using the Acapella building blocks system (Perkin Elmer). The image analysis algorithm first identified the H9C2 nuclei followed by demarcation of the cytoplasm and identification of intracellular amastigotes. This algorithm reported mean number of parasites per H9C2 cell, the percentage of infected H9C2 cells and the total number of H9C2 cells.

Data set [4] in a line: Assay 4 solubility assay, ChemiLuminescent Nitrogen Detection (CLND). The settings on record: phosphate buffered saline, pH 7.4, aqueous buffer, kinetic from dmso stock, pH 7.4 PBS, from 10 mM DMSO stock, 1 h at room temperature. The class given is physicochemical. The gist of the method:
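Kinetic solubility: 10 mM DMSO stock diluted 5 µl into 100 µl pH 7.4 PBS, incubated 1 h at room temperature, then filtered. Filtrate quantified by HPLC with chemiluminescent nitrogen detection against ondansetron and caffeine standards; solubility in µM by linear-regression calibration.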

The nature of data set [5]: Assay 1 intramacrophage Leishmania donovani assay, THP-1 cell count (cytotoxicity readout). In kind it is cell-based. To be noted: human, minimum threshold 4.3, read-out: cytotoxicity against THP-1 cells, pEC50 value (converted). As for the experimental part:
The intramacrophage Leishmania assay was performed using a modified version of the method described in De Rycker et al. (Antimicrob Agents Chemother. 2013 July; 57(7):2913-22. Comparison of a high-throughput high-content intracellular Leishmania donovani assay with an axenic amastigote assay. De Rycker M, Hallyburton I, Thomas J, Campbell L, Wyllie S, Joshi D, Cameron S, Gilbert I H, Wyatt P G, Frearson J A, Fairlamb A H, Gray D W.). Procedure: 350 nl of compound was pre-dispensed into 384 well sterile intermediary plates. For single point screening, amphotericin B was added to all wells of column 24 as a positive control (final concentration 2 μM) and DMSO to column 23. For potency determinations, ten-point, one in three dilution curves were created with the highest concentration being 50 μM and on each plate a control curve of amphotericin B was included. Controls were as follows: columns 11 and 12: DMSO, columns 23 and 24: amphotericin B (final concentration 2 μM). To the intermediary plates, 35 μl of THP-1 media was added and plates were shaken for >5 min to ensure complete mixing. THP-1 cells (8,000 per well, 50 μl) were plated into black clear-bottom 384 well plates (Corning) in presence of 20 nM PMA. After 20 min at RT, the plates were incubated at 37° C. under 5% CO2 in a humidified incubator for 75 h. The cells were then washed with […] sterile phosphate buffered saline (PBS) supplemented with 1 mM CaCl2, 0.5 mM MgCl2, 0.1% (w/v) bovine serum albumin (PBS-A) and amastigotes were added to all wells at a multiplicity of infection of 5 (40,000 amastigotes per well). After 40 min at RT, plates were returned to the incubator. Amastigotes were incubated in the presence of THP-1 macrophages for 16 h. Any remaining extracellular amastigotes were subsequently removed with an overflow wash of 1 mL PBS-A per well (wash buffer is being aspirated from the top of the well as it is being dispensed) followed by addition of 25 μl of the compound pre-dilutions using a Fluidx Ipette-pro pipetting station. The final dilution of each compound was 200-fold. Plates were incubated for 96 h and then washed (250 μl PBS-A) and fixed (4% (v/v) formaldehyde-PBS, 30 min, RT). After fixation, the wells were washed with 250 μl PBS, stained (10 μg/mL DAPI, 0.4 μg mL-1 HCS Cellmask Deep Red in PBS+0.1% (v/v) Triton X-100, 30 min, RT) and washed with 250 μl PBS. Finally, PBS+0.05% (v/v) thimerosal was added to the wells, the plates were sealed and imaged on a high-content microscope (GE IN Cell 2000) using a 10× objective. Image analysis was carried out with GE IN Cell Analyzer 1000 Workstation using the “Multi Target Analysis” module. Settings for segmentation were as follows: nuclei: minimum area: 142.384 μm2, sensitivity: 81, method: top-hat; cells: characteristic area: 2500 μm2, sensitivity: 60, method: multiscale top-hat; organelles (amastigotes): granule size 1-3, 3 scales, sensitivity: 90, detection in entire cell. For each well, i) THP-1 cell count (cytotoxicity readout) and ii) average number of amastigotes per cell (potency readout) were calculated, both in terms of pEC50 values.

The structures appear in SMILES notation. ≈ marks a conversion by molar mass, not a printed value.

Take `COc1ccc(CNCc2cccc(-c3cnc4nc(-c5cc(NC(=O)N6CCCC6)ccc5F)cn4n3)c2)cc1` [Example 45, N-(4-fluoro-3-(2-(3-(((4-methoxybenzyl)amino)methyl)phenyl)imidazo [1,2-b][1,2,4]triazin-6-yl)phenyl)pyrrolidine-1-carboxamide]: in data set [1], the EC50 is 5.01 to 631 nM. The EC50 at 96 h in data set [2] was 2510 to 10000 nM; in data set [5], 3980 to 15800 nM. Moreover, the EC50 at 72 h in data set [3] was 794 to 3160 nM. In data set [4], this molecule yielded a solubility at 1 h of 10 to 83 µM (≈ 5.52 to 45.8 µg/mL).

What is called solubility is the concentration that dissolves in the medium under given conditions. The low end stands for a poorly soluble substance, the high end for a readily soluble substance.
